Source: patent US20050119231A1, “Quinolone antibacterial agents” (priority 2003, published 2005)
Converted amounts (≈) assume the structure as drawn.

How the values were obtained:
Assay in all cases: Antibacterial microtitration assay (Test A), MIC
Format in all cases: cell-based
E. coli EC-2549 = settings: Escherichia coli, EC2549; Gram Negative Bacteria; strain EC-2549; read-out: Minimum Inhibitory Concentrations E. coli EC-2549
Procedure: (§1) Test A—Antibacterial Assays
(§2) The compounds of the present invention were tested against an assortment of Gram-negative and Gram-positive organisms using standard microtitration techniques (Cohen et. al., Antimicrob., 1985;28:766; Heifetz, et. al., Antimicrob., 1974;6:124).

M. catarrhalis BC-3531 = settings: Moraxella catarrhalis, BC3531; Gram Negative Bacteria; strain BC-3531; read-out: Minimum Inhibitory Concentrations M. catarrhalis BC-3531
Procedure: as §1, §2

H. influenzae HI-3542 = settings: Haemophilus influenzae, HI3542; Gram Negative Bacteria; strain HI-3542; read-out: Minimum Inhibitory Concentrations H. influenzae HI-3542
Procedure: as §1, §2

E. faecalis MGH-2 = settings: Enterococcus faecalis, MGH2; Gram Positive Bacteria; strain MGH-2; read-out: Minimum Inhibitory Concentrations E. faecalis MGH-2
Procedure: as §1, §2

S. aureus UC-76 = settings: Staphylococcus aureus, UC76; Gram Positive Bacteria; strain UC-76; read-out: Minimum Inhibitory Concentrations S. aureus UC-76
Procedure: as §1, §2

S. pneumo SV-1 = settings: Streptococcus pneumoniae, SV1; Gram Positive Bacteria; strain SV-1; read-out: Minimum Inhibitory Concentrations S. pneumo SV-1
Procedure: as §1, §2

S pyogenes C203 = settings: Gram Positive Bacteria; strain C203; read-out: Minimum Inhibitory Concentrations S pyogenes C203
Procedure: as §1, §2

MIC (E. coli EC-2549)	MIC (M. catarrhalis BC-3531)	MIC (H. influenzae HI-3542)	MIC (E. faecalis MGH-2)	MIC (S. aureus UC-76)	MIC (S. pneumo SV-1)	MIC (S pyogenes C203)	SMILES
4 µg/mL (≈ 11.5 µM)	1 µg/mL (≈ 2.87 µM)	0.5 µg/mL (≈ 1.44 µM)	–	–	–	–	Cc1c(N2CCC(CO)C2)c(F)cc2c(=O)n(N)c(=O)n(C3CC3)c12 (stereo not shown) [drawing 311]
32 µg/mL (≈ 74.2 µM)	2 µg/mL (≈ 4.64 µM)	2 µg/mL (≈ 4.64 µM)	–	–	–	–	COc1c(N2CCC(C(O)c3ncco3)C2)c(F)cc2c(=O)n(N)c(=O)n(C3CC3)c12 (stereo not shown) [drawing 312]
16 µg/mL (≈ 38.5 µM)	2 µg/mL (≈ 4.81 µM)	1 µg/mL (≈ 2.41 µM)	–	–	–	–	Cc1c(N2CCC(C(O)c3ncco3)C2)c(F)cc2c(=O)n(N)c(=O)n(C3CC3)c12 (stereo not shown) [drawing 313]
64 µg/mL (≈ 149 µM)	8 µg/mL (≈ 18.7 µM)	4 µg/mL (≈ 9.34 µM)	–	–	–	–	COc1c(N2CCC(C(O)C(C)(F)F)C2)c(F)cc2c(=O)n(N)c(=O)n(C3CC3)c12 (stereo not shown) [drawing 314]
16 µg/mL (≈ 42.3 µM)	1 µg/mL (≈ 2.64 µM)	2 µg/mL (≈ 5.29 µM)	–	–	–	–	COc1c(N2CCC(CCO)C2)c(F)cc2c(=O)n(N)c(=O)n(C3CC3)c12 (stereo not shown) [drawing 315]
8 µg/mL (≈ 18.4 µM)	1 µg/mL (≈ 2.3 µM)	1 µg/mL (≈ 2.3 µM)	–	–	–	–	COc1c(N2CCC(C(O)C3(CO)CC3)C2)c(F)cc2c(=O)n(N)c(=O)n(C3CC3)c12 (stereo not shown) [drawing 316]
4 µg/mL (≈ 10.6 µM)	1 µg/mL (≈ 2.64 µM)	0.5 µg/mL (≈ 1.32 µM)	–	–	–	–	Cc1c(N2CCC(C(O)CO)C2)c(F)cc2c(=O)n(N)c(=O)n(C3CC3)c12 (stereo not shown) [drawing 317]
2 µg/mL (≈ 4.63 µM)	0.125 µg/mL (≈ 0.289 µM)	0.125 µg/mL (≈ 0.289 µM)	–	–	–	–	COc1c(N2CCC(C(O)C(F)(F)F)C2)c(F)cc2c(=O)n(N)c(=O)n(C3CC3)c12 (stereo not shown) [drawing 318]
32 µg/mL (≈ 84.6 µM)	4 µg/mL (≈ 10.6 µM)	4 µg/mL (≈ 10.6 µM)	–	–	–	–	COCC1CCN(c2c(F)cc3c(=O)n(N)c(=O)n(C4CC4)c3c2OC)C1 (stereo not shown) [drawing 319]
–	–	–	2 µg/mL (≈ 5.74 µM)	0.5 µg/mL (≈ 1.44 µM)	1 µg/mL (≈ 2.87 µM)	2 µg/mL (≈ 5.74 µM)	Cc1c(N2CCC(CO)C2)c(F)cc2c(=O)n(N)c(=O)n(C3CC3)c12 (stereo not shown) [drawing 320]
–	–	–	8 µg/mL (≈ 18.5 µM)	0.5 µg/mL (≈ 1.16 µM)	8 µg/mL (≈ 18.5 µM)	8 µg/mL (≈ 18.5 µM)	COc1c(N2CCC(C(O)c3ncco3)C2)c(F)cc2c(=O)n(N)c(=O)n(C3CC3)c12 (stereo not shown) [drawing 321]
–	–	–	8 µg/mL (≈ 19.3 µM)	1 µg/mL (≈ 2.41 µM)	4 µg/mL (≈ 9.63 µM)	4 µg/mL (≈ 9.63 µM)	Cc1c(N2CCC(C(O)c3ncco3)C2)c(F)cc2c(=O)n(N)c(=O)n(C3CC3)c12 (stereo not shown) [drawing 322]
–	–	–	16 µg/mL (≈ 37.3 µM)	2 µg/mL (≈ 4.67 µM)	8 µg/mL (≈ 18.7 µM)	8 µg/mL (≈ 18.7 µM)	COc1c(N2CCC(C(O)C(C)(F)F)C2)c(F)cc2c(=O)n(N)c(=O)n(C3CC3)c12 (stereo not shown) [drawing 323]
–	–	–	4 µg/mL (≈ 10.6 µM)	0.5 µg/mL (≈ 1.32 µM)	2 µg/mL (≈ 5.29 µM)	4 µg/mL (≈ 10.6 µM)	COc1c(N2CCC(CCO)C2)c(F)cc2c(=O)n(N)c(=O)n(C3CC3)c12 (stereo not shown) [drawing 324]
–	–	–	4 µg/mL (≈ 9.21 µM)	0.5 µg/mL (≈ 1.15 µM)	4 µg/mL (≈ 9.21 µM)	8 µg/mL (≈ 18.4 µM)	COc1c(N2CCC(C(O)C3(CO)CC3)C2)c(F)cc2c(=O)n(N)c(=O)n(C3CC3)c12 (stereo not shown) [drawing 325]
–	–	–	2 µg/mL (≈ 5.29 µM)	0.25 µg/mL (≈ 0.661 µM)	1 µg/mL (≈ 2.64 µM)	1 µg/mL (≈ 2.64 µM)	Cc1c(N2CCC(C(O)CO)C2)c(F)cc2c(=O)n(N)c(=O)n(C3CC3)c12 (stereo not shown) [drawing 326]

MIC (E. coli EC-2549)	MIC (M. catarrhalis BC-3531)	MIC (H. influenzae HI-3542)	MIC (E. faecalis MGH-2)	MIC (S. aureus UC-76)	MIC (S. pneumo SV-1)	MIC (S pyogenes C203)	SMILES
–	–	–	1 µg/mL (≈ 2.31 µM)	0.06 µg/mL (≈ 0.139 µM)	0.5 µg/mL (≈ 1.16 µM)	1 µg/mL (≈ 2.31 µM)	COc1c(N2CCC(C(O)C(F)(F)F)C2)c(F)cc2c(=O)n(N)c(=O)n(C3CC3)c12 (stereo not shown) [drawing 327]
–	–	–	4 µg/mL (≈ 10.6 µM)	1 µg/mL (≈ 2.64 µM)	2 µg/mL (≈ 5.29 µM)	4 µg/mL (≈ 10.6 µM)	COCC1CCN(c2c(F)cc3c(=O)n(N)c(=O)n(C4CC4)c3c2OC)C1 (stereo not shown) [drawing 328]
16 µg/mL (≈ 43.8 µM)	1 µg/mL (≈ 2.74 µM)	0.5 µg/mL (≈ 1.37 µM)	–	–	–	–	Nn1c(=O)c2cc(F)c(N3C[C@@H](CO)[C@@H](CO)C3)nc2n(C2CC2)c1=O [drawing 330]
32 µg/mL (≈ 87.6 µM)	4 µg/mL (≈ 10.9 µM)	1 µg/mL (≈ 2.74 µM)	–	–	–	–	Nn1c(=O)c2cc(F)c(N3C[C@H](CO)[C@@H](CO)C3)nc2n(C2CC2)c1=O [drawing 331]
16 µg/mL (≈ 47.4 µM)	2 µg/mL (≈ 5.93 µM)	0.5 µg/mL (≈ 1.48 µM)	–	–	–	–	Nn1c(=O)c2cc(F)c(N3C[C@@H](O)[C@@H](O)C3)nc2n(C2CC2)c1=O [drawing 332]
0.125 µg/mL (≈ 0.318 µM)	0.06 µg/mL (≈ 0.153 µM)	0.015 µg/mL (≈ 0.0381 µM)	–	–	–	–	Nn1c(=O)c2cc(F)c(N3C[C@@H](CCO)[C@@H](CCO)C3)nc2n(C2CC2)c1=O [drawing 333]
4 µg/mL (≈ 11.3 µM)	1 µg/mL (≈ 2.83 µM)	0.5 µg/mL (≈ 1.42 µM)	–	–	–	–	Nn1c(=O)c2cc(F)c(N3C[C@H](CO)[C@H](F)C3)nc2n(C2CC2)c1=O [drawing 334]
–	–	–	4 µg/mL (≈ 10.9 µM)	0.25 µg/mL (≈ 0.684 µM)	2 µg/mL (≈ 5.47 µM)	1 µg/mL (≈ 2.74 µM)	Nn1c(=O)c2cc(F)c(N3C[C@@H](CO)[C@@H](CO)C3)nc2n(C2CC2)c1=O [drawing 335]
–	–	–	8 µg/mL (≈ 21.9 µM)	0.5 µg/mL (≈ 1.37 µM)	4 µg/mL (≈ 10.9 µM)	2 µg/mL (≈ 5.47 µM)	Nn1c(=O)c2cc(F)c(N3C[C@H](CO)[C@@H](CO)C3)nc2n(C2CC2)c1=O [drawing 336]
–	–	–	8 µg/mL (≈ 23.7 µM)	2 µg/mL (≈ 5.93 µM)	8 µg/mL (≈ 23.7 µM)	8 µg/mL (≈ 23.7 µM)	Nn1c(=O)c2cc(F)c(N3C[C@@H](O)[C@@H](O)C3)nc2n(C2CC2)c1=O [drawing 337]
–	–	–	0.06 µg/mL (≈ 0.153 µM)	0.002 µg/mL (≈ 0.00508 µM)	0.03 µg/mL (≈ 0.0763 µM)	0.03 µg/mL (≈ 0.0763 µM)	Nn1c(=O)c2cc(F)c(N3C[C@@H](CCO)[C@@H](CCO)C3)nc2n(C2CC2)c1=O [drawing 338]
–	–	–	4 µg/mL (≈ 11.3 µM)	0.25 µg/mL (≈ 0.708 µM)	2 µg/mL (≈ 5.66 µM)	4 µg/mL (≈ 11.3 µM)	Nn1c(=O)c2cc(F)c(N3C[C@H](CO)[C@H](F)C3)nc2n(C2CC2)c1=O [drawing 339]
64 µg/mL (≈ 157 µM)	32 µg/mL (≈ 78.7 µM)	16 µg/mL (≈ 39.4 µM)	–	–	–	–	Cc1c(N2C[C@](C)(CO)[C@](C)(CO)C2)c(F)cc2c(=O)n(N)c(=O)n(C3CC3)c12 [drawing 341]
–	–	–	16 µg/mL (≈ 39.4 µM)	2 µg/mL (≈ 4.92 µM)	16 µg/mL (≈ 39.4 µM)	32 µg/mL (≈ 78.7 µM)	Cc1c(N2C[C@](C)(CO)[C@](C)(CO)C2)c(F)cc2c(=O)n(N)c(=O)n(C3CC3)c12 [drawing 342]
32 µg/mL (≈ 79.1 µM)	4 µg/mL (≈ 9.89 µM)	4 µg/mL (≈ 9.89 µM)	–	–	–	–	Cc1c(N2CC3CCC(O)(CO)C3C2)c(F)cc2c(=O)n(N)c(=O)n(C3CC3)c12 (stereo not shown) [drawing 344]
–	–	–	8 µg/mL (≈ 19.8 µM)	1 µg/mL (≈ 2.47 µM)	8 µg/mL (≈ 19.8 µM)	8 µg/mL (≈ 19.8 µM)	Cc1c(N2CC3CCC(O)(CO)C3C2)c(F)cc2c(=O)n(N)c(=O)n(C3CC3)c12 (stereo not shown) [drawing 345]
